Assay: HILIC, Waters ACQUITY UPLC BEH Amide, 100 × 2.1 mm, 1.7 µm; A: water + 0.125% formic acid + 10 mM ammonium formate; B: 5% water + 95% acetonitrile + 0.125% formic acid + 10 mM ammonium formate; gradient (min/%B) 0/100 2/100 7.7/70 9.5/40 10.25/30 12.75/100 17/100
Conditions: stereoisomer not certain

LC retention time | Structure (SMILES)
7.67 min | CC(=O)NC(CO)C(=O)O (stereo unspecified) [N-Acetylserine]
0.99 min | C#CC1(O)CCC2C3CCC4=CC(=O)CCC4C3CCC21CC (stereo unspecified) [Levonorgestrel]
7.79 min | C=CC1=C(C(=O)O)N2C(=O)C(NC(=O)C(=NOCC(=O)O)c3csc(N)n3)C2SC1 (stereo unspecified) [Cefixime]
1.29 min | CC(C)C(O)C(=O)O (stereo unspecified) [2-Hydroxy-3-methylbutyric acid]
1.98 min | Cc1cn(C2OC(CO)C(O)C2O)c(=S)[nH]c1=O (stereo unspecified) [5-Methyl-2-thiouridine]
1.84 min | OCC1OC(O)C(O)C(O)C1O (stereo unspecified) [Glucose]
2.49 min | CSCC1OC(n2cnc3c(N)ncnc32)C(O)C1O (stereo unspecified) [5'-Methylthioadenosine]
3.73 min | CCCC(=O)NCC(=O)O [Butyrylglycine]
8.15 min | CC(=O)N[C@@H](CCCCN)C(=O)O [N.alpha.-Acetyl-L-lysine]
9.88 min | CC1OC(OC2C(CO)OC(OC3C(CO)OC(O)C(O)C3O)C(O)C2O)C(O)C(O)C1NC1C=C(CO)C(O)C(O)C1O (stereo unspecified) [Acarbose]
1.8 min | O=C1CC2(CCCC2)CC(=O)N1CCNCC1COc2ccccc2O1 (stereo unspecified) [Binospirone]
8.12 min | OCCN1CC(O)C(O)C(O)C1CO (stereo unspecified) [Miglitol]
6.38 min | Cn1cc(CC(N)C(=O)O)c2ccccc21 (stereo unspecified) [1-Methyltryptophan]
6 min | CC(=O)NCCc1cnc[nH]1 [N-omega-Acetylhistamine]
9.48 min | NC(Cc1cnc[nH]1)C(=O)O (stereo unspecified) [Histidine]
0.95 min | CC(=O)SCC(Cc1ccccc1)C(=O)NCC(=O)OCc1ccccc1 (stereo unspecified) [Racecadotril]
0.97 min | CCOC(=O)OC1(C(=O)OCCl)CCC2C3CCC4=CC(=O)C=CC4(C)C3C(O)CC21C (stereo unspecified) [Loteprednol Etabonate]
1.24 min | CC(=O)CCCC(=O)O [4-Acetylbutyric acid]
5.42 min | CC(=O)C1(O)Cc2c(O)c3c(c(O)c2C(OC2CC(N)C(O)C(C)O2)C1)C(=O)c1ccccc1C3=O (stereo unspecified) [Idarubicin]
3.14 min | O=C1CCc2ccc(OCCCCN3CCN(c4cccc(Cl)c4Cl)CC3)cc2N1 [Aripiprazole]
4.19 min | Cc1cn(C2OC(CO)C(O)C2O)c(=O)[nH]c1=O (stereo unspecified) [5-Methyluridine]
6.26 min | C[n+]1cccc(C(N)=O)c1 [1-Methylnicotinamide]
1.41 min | Oc1ccc(C=Cc2cc(O)cc(O)c2)cc1 [Resveratrol]
2.3 min | O=C(O)C(O)c1ccc(O)c(O)c1 (stereo unspecified) [3,4-Dihydroxymandelic acid]
1.29 min | CC(C)CC1NC(=O)C2CCCN2C1=O (stereo unspecified) [Cyclo(Leu-Pro)]
1.21 min | Cn1c(=O)c2c(ncn2C)n(C)c1=O [Caffeine]

LC retention time | Structure (SMILES)
2.05 min | NCCS [2-Aminoethanethiol]
7.01 min | CC(=O)NC1C(O)OC(CO)C(O)C1O (stereo unspecified) [N-Acetylmannosamine]
8.99 min | OCC(O)C(O)C(OC1OC(CO)C(O)C(O)C1O)C(O)CO (stereo unspecified) [Lactitol]
1.58 min | CC(=O)Nc1ccc(CC(=O)O)cc1 [Actrarit]
1.64 min | CCN1CC(CCN2CCOCC2)C(c2ccccc2)(c2ccccc2)C1=O (stereo unspecified) [Doxapram]
1.11 min | CCc1ccc(CCOc2ccc(CC3SC(=O)NC3=O)cc2)nc1 (stereo unspecified) [Pioglitazone]
1.01 min | O=c1c(-c2ccccc2)c1-c1ccccc1 [Diphenylcyclopropenone]
8.25 min | O=c1ccn(C2CC(O)C(COP(=O)(O)O)O2)c(=O)[nH]1 (stereo unspecified) [Deoxyuridine monophosphate]
1.43 min | CC(C)C(C)C=CC(C)C1CCC2C3=CC=C4CC(O)CCC4(C)C3CCC21C (stereo unspecified) [Ergosterol]
1.12 min | COc1ccc(C2CNC(=O)C2)cc1OC1CCCC1 (stereo unspecified) [Rolipram]
4.88 min | CCCC(=O)OCC [Ethylbutanoate]
4.93 min | COC1C(O)C(CO)OC1n1cc(C)c(N)nc1=O (stereo unspecified) [2'-O-Methyl-5-methylcytidine]
1 min | COc1cc(C(=O)NS(=O)(=O)c2ccccc2C)ccc1Cc1cn(C)c2ccc(NC(=O)OC3CCCC3)cc12 [Zafirlukast]
4.76 min | CCC1=CC2CN(C1)Cc1c([nH]c3ccccc13)C(C(=O)OC)(c1cc3c(cc1OC)N(C)C1C(O)(C(=O)OC)C(OC(C)=O)C4(CC)C=CCN5CCC31C54)C2 (stereo unspecified) [Vinorelbine]
6.9 min | Nc1[nH]c(=O)ncc1CO [5-Hydroxymethylcytosine]
3.81 min | CN1C2CCC1CC(OC(=O)c1c[nH]c3ccccc13)C2 (stereo unspecified) [Tropisetron]
1.49 min | CSc1ncnc2nc[nH]c12 [6-Methylmercaptopurine]
3.75 min | COc1cc2nc(N3CCN(C(=O)c4ccco4)CC3)nc(N)c2cc1OC [Prazosin]
2.57 min | Cc1cn(C2CC(O)C(CO)O2)c(=O)[nH]c1=O (stereo unspecified) [Thymidine]
4.85 min | O=C(O)CCNC(=O)c1ccc(N=Nc2ccc(O)c(C(=O)O)c2)cc1 [Balsalazide]
5.4 min | O=CCc1ccccc1 [Phenylacetaldehyde]
7.68 min | CNC(C(=O)O)C(C)O (stereo unspecified) [N-Methylthreonine]
1.83 min | Cn1c(=O)c2c([nH]c(=O)n2C)n(C)c1=O [1,3,7-Trimethyluric acid]
7.8 min | NC(=O)NC(CCC(=O)O)C(=O)O (stereo unspecified) [Ureidoglutaric acid]
1.01 min | CC12CCC3c4ccc(O)cc4CCC3C1CCC2=O (stereo unspecified) [1,3,5(10)-Estratrien-3-ol-17-one]
1.82 min | Cc1cc2nc[nH]c2cc1C [5,6-Dimethylbenzimidazole]

LC retention time | Structure (SMILES)
5.7 min | CCCNC1CCc2nc(N)sc2C1 (stereo unspecified) [Pramipexole]
1.17 min | CC(C)(C)NC(=O)C1CCC2C3CCC4NC(=O)C=CC4(C)C3CCC12C (stereo unspecified) [Finasteride]
1.53 min | Cc1ccc(C(C)C)c(O)c1 [Thymol]
5.87 min | Nc1ccn(C2CC(O)C(CO)O2)c(=O)n1 (stereo unspecified) [2'-Deoxycytidine]
9.86 min | O=P(O)(O)OCC1OC(O)C(O)C(O)C1O (stereo unspecified) [Glucose-6-phosphate]
8.05 min | CC(N)C(=O)O (stereo unspecified) [Alanine]
8.07 min | NCC(=O)NC(Cc1ccc(O)cc1)C(=O)O (stereo unspecified) [Gly-Tyr]
7.13 min | NC(Cc1ccc(O)c(Cl)c1)C(=O)O (stereo unspecified) [3-Chlorotyrosine]
6.71 min | Nc1nc2c(ncn2CCC(CO)CO)c(=O)[nH]1 [Penciclovir]
9.16 min | Nc1ccn(C2CC(O)C(COP(=O)(O)O)O2)c(=O)n1 (stereo unspecified) [2-Deoxycytidine-5-monophosphoric acid]
8.63 min | Nc1ncnc2c1ncn2C1CC(O)C(COP(=O)(O)O)O1 (stereo unspecified) [2'-Deoxyadenosine-5'-monophosphate]
2.34 min | CC(C)CCCC(C)C1CCC2C3CC=C4CC(OC(=O)NCCN(C)C)CCC4(C)C3CCC12C (stereo not drawn) [3-beta-Cholest-5-en-3-yl [2-(dimethylamino)ethyl]carbamate]
1.22 min | Nc1ccccc1O [2-Aminophenol]
1.7 min | NC(=O)c1cccnc1 [Nicotinamide]
3.87 min | CN1C(=O)CCC1c1ccc[n+]([O-])c1 [(S)-Cotinine N-oxide]
1.02 min | CC(c1ncncc1F)C(O)(Cn1cncn1)c1ccc(F)cc1F (stereo unspecified) [Voriconazole]
0.95 min | CCOC(=O)OC(C)OC1=C(C(=O)Nc2ccccn2)N(C)S(=O)(=O)c2ccccc21 (stereo unspecified) [Ampiroxicam]
8.2 min | NC(CCC(=O)O)C(=O)NC(Cc1ccccc1)C(=O)O (stereo unspecified) [Glu-Phe]
5.91 min | NC(=O)C(N)Cc1c[nH]c2ccccc12 (stereo unspecified) [Tryptophanamide]
6.39 min | Cc1cn(C2OC(CO)C(O)C2O)c(=O)nc1N (stereo unspecified) [5-Methylcytidine]
1.41 min | OCc1cccnc1 [3-Pyridinemthanol]
6.41 min | CCC(=O)OC(CC(=O)[O-])C[N+](C)(C)C (stereo unspecified) [Propionylcarnitine]
1.08 min | COc1ccc2c(c1)c(CC(=O)O)c(C)n2C(=O)c1ccc(Cl)cc1 [Indomethacin]
8.41 min | CC(N)C(=O)NC(C)C(=O)O (stereo unspecified) [Ala-Ala]
5.02 min | COC1C(O)C(CO)OC1n1ccc(N)nc1=O (stereo unspecified) [2'-O-Methylcytidine]
8.73 min | NC(CO)C(=O)O (stereo unspecified) [Serine]

Structure (SMILES) | LC retention time
NC(Cn1ccc(=O)[nH]c1=O)C(=O)O (stereo unspecified) [Willardiine] | 8.72 min
CC12CCC3C(CCC4CC(O)CCC43C)C1CCC2=O (stereo unspecified) [Androsterone] | 4.62 min
CCC(=O)Nc1ccc(Cl)c(Cl)c1 [Propanil] | 1.08 min
O=C(O)CCP(=O)(O)O [3-Phosphonopropionic acid] | 8.59 min
c1ccc(Cn2ccnc2)cc1 [1-Benzylimidazole] | 1.63 min
CN1C2CCC1CC(OC(=O)C(CO)c1ccccc1)C2 (stereo unspecified) [Atropine] | 4.32 min
Cc1ccc(-c2nc3ccc(C)cn3c2CC(=O)N(C)C)cc1 [Zolpidem] | 1.62 min
CCCCCC=CCC=CCC=CCC=CCCCC(=O)Nc1ccc(O)cc1 [AM 404] | 0.97 min
C=COC(N)=O [Vinyl Carbamate] | 1.34 min
CCOP(=O)(OCC)Oc1ccc([N+](=O)[O-])cc1 [Paraoxon] | 1.02 min
CN1CCC23c4c5ccc(O)c4OC2C(=O)CCC3C1C5 (stereo unspecified) [Hydromorphone] | 5.22 min
OC1CCCCC1N1CCC(c2ccccc2)CC1 (stereo unspecified) [Vesamicol] | 2.65 min
CN1CCC(c2ccc(F)cc2)C(COc2ccc3c(c2)OCO3)C1 (stereo unspecified) [N-Methylparoxetine] | 2.2 min

— the RepoRT retention time repository
